Test: Human HepG2 cell viability assay in 384 well format
Format: toxicity, cell-based
Design: dose 125 nL, time 70.5 hour; cytotoxicity at 70.5 h: concentration not given beside the values
Settings: HepG2 cells, read-out: Inhibition

| Compound | cytotoxicity at 70.5 h [%] |
| --- | --- |
| O=C(CS(=O)(=O)c1ccccc1Cl)NC1CCCCNC1=O (centres undefined) | -25.9 |
| O=S(=O)(Nc1ccccn1)c1cc(Cl)cc2c1OCC2 | 4.53 |
| Cc1nn(C)c2c(=O)n(CC(=O)NCCC(C)C)ccc12 | -5.71 |
| COc1cccc(OCCCc2cncc(C(N)=O)c2)c1 | -13.7 |
| CCOc1cccc(COC(=O)c2ccc(F)cn2)n1 | -2.51 |
| COc1ccc(F)cc1C(=O)C1CCCN(Cc2ccc(C)s2)C1 (centres undefined) | -12.9 |
| COCc1ccccc1C(=O)NCC(O)c1ccc(Cl)s1 (centres undefined) | 0.31 |
| CCn1cc(CNC(=O)c2nn(CC)cc2Br)cn1 | 8.71 |
| CCCN1C[C@H]2CC[C@@H]1CN(Cc1cccc(O)c1)C2 | -9.57 |
| CCN1CC(C(=O)N2CCN(CCn3cccc3)CC2)CCC1=O (centres undefined) | 1.29 |
| CC1c2ncc(COCC3CC3)n2CCN1C(=O)c1ccnn1C (centres undefined) | -10.2 |
| O=C(c1cccnc1)N1CCC2(CC1)CC(Oc1ccccc1)CO2 (centres undefined) | 26.5 |
| O=C(CC1CCCO1)Nc1cccc(N2CCN(CC3CC3)CC2)c1 (centres undefined) | 0.099 |
| CC(O)CC(C)(C)CNS(=O)(=O)c1cccc(Cl)c1C#N (centres undefined) | -10 |
| O=C(Cn1cc(C(=O)O)ccc1=O)NCc1ccc(F)c(Cl)c1 | -13.4 |
| COCCN1CCC(CNC(=O)C2(c3ccc(Br)cc3)CCCC2)C1 (centres undefined) | -0.291 |
| O=C(CCn1cccn1)NCC(c1cccs1)N1CCOCC1 (centres undefined) | 25.6 |
| CCn1ccc(-c2cc(C(=O)O)n3nc(C(F)(F)F)c(Br)c3n2)n1 | -3.3 |
| Cc1ccc(CN2CCc3ncnc(C4CC4)c3CC2)s1 | 33.9 |
| Cc1cccc(CN2CC3(CCN(C4CCOC4)CC3)OCC2=O)n1 (centres undefined) | 0.761 |
| CC(c1nnc(-c2ccccc2)o1)N1CCC(Nc2ccccc2)CC1 (centres undefined) | 8.58 |
| Cc1cccc(C(=O)N2CCCn3cnc(CN4CCCC4=O)c3C2)n1 | 30.9 |
| CSCC(=O)N1C[C@H]2CC[C@@H]1CN(Cc1ccccc1)C2 | -3.17 |

| Compound | cytotoxicity at 70.5 h [%] |
| --- | --- |
| O=C1CCCN1CCN1CCC(c2ccn[nH]2)CC1 | -7.63 |
| Cc1nc(C2CCCN2CC(=O)N2CCc3ccccc32)no1 (centres undefined) | 21.3 |
| CCc1nc(CN2CCCC(N(C)Cc3cnn(C)c3)C2)no1 (centres undefined) | -10.2 |
| CC(CC(F)(F)F)NCc1ccccc1-n1ccnc1 (centres undefined) | -10.9 |
| COc1cccc(NC(=O)NCC(Cc2cnn(C)c2)C(N)=O)c1 (centres undefined) | -7.2 |
| CC[C@H]1N(C)CCC[C@]12CCC(=O)N2Cc1ccncc1 | 10.9 |
| Cc1ccc(F)cc1NS(=O)(=O)c1cc2c(c(C(=O)O)c1)OCCO2 | -5.92 |
| COC1CCN(C(=O)Cn2nc(C)cc2C)CC1 | -3.13 |
| O=C(NCC1CC1)c1cc(C2CC2)nc2onc(C3CCCNC3)c12 (centres undefined) | -7.5 |
| O=C(c1ccc(O)c(Cl)c1)N1C[C@@H](CN2CCCCCC2)[C@@H](CO)C1 | 3.21 |
| Cc1noc(-c2ccc(N(C)Cc3nccs3)nc2)n1 | -9.04 |
| COc1ccc(N2CCN(C(=O)[C@H]3[C@@H]4CNC[C@@H]43)CC2(C)C)cc1 | 18.4 |
| Cc1nc(C)n(CC2CCCN2CC(=O)N(C)Cc2ccc(C)o2)n1 (centres undefined) | -4.56 |
| CCC1=N[C@@]2(CC[C@@H]3CN(CC4CC4)C[C@@H]32)C(=O)N1CC | -14 |
| CN(Cc1ccco1)C(=O)c1cccc(N2CCCC2=O)c1 | -8.03 |
| CC(C)CCC(=O)NCC(=O)N1CCCCCC1c1ccco1 (centres undefined) | -5.74 |
| Cc1ccccc1C(=O)N1C[C@@H]2[C@@H](CN(C)CCc3ccccn3)[C@@H]2C1 | -8.54 |
| Cc1cnc(N2CCc3c(cnc(C)c3C(=O)O)C2)nc1 | -2.57 |
| CCn1ccnc1CN1CCCN(C(=O)c2ccnc(C)n2)CC1 | 14.4 |
| O=C1CC[C@@H]2[C@@H](CCN2C(=O)c2ccsc2)N1CC1CC1 | -6.8 |
| CC(Nc1ccc(CCN2CCCCC2)cc1)C(=O)N(C)CCC#N (centres undefined) | -6.46 |
| Cc1cc(CN2CCN(C(=O)C(C)C)[C@@H]3CS(=O)(=O)C[C@@H]32)ccc1F | -2.32 |
| O=C(CNC(=O)N1CCN(c2cccc(Cl)c2)CC1)Nc1ccccn1 | -9.74 |

| Compound | cytotoxicity at 70.5 h [%] |
| --- | --- |
| O=C(NCc1nnc2n1CCC2)N1CCC2(CCCCC2)CC1 | -12.2 |
| CCC(C)CN(C)C(=O)NCc1ccccc1-n1cccn1 (centres undefined) | 1.17 |
| CS(=O)(=O)NCCCNC(=O)c1cccc(-n2cccc2)c1 | -1.21 |
| CCSc1ccc(NC(=O)NC(C)c2ccncc2)cn1 (centres undefined) | -5.74 |
| CCN(CC)c1ncccc1CNCc1cc2ccccc2s1 | -2.63 |
| COc1ccc2c(c1)CC(C1CCOCC1)N(C(=O)c1ccn(C)n1)C2 (centres undefined) | 2.06 |
| Cc1noc(C)c1C(=O)N1C[C@@H]2COC[C@]2(COc2ccccn2)C1 | 10.4 |
| CC(=O)N1CCC2(C1)C(=O)N(CC1CC1)c1ccccc12 (centres undefined) | -8.89 |
| O=C(c1ccc2c(c1)CCC2)N1CCn2ncnc2C1 | 3.48 |
| O=S(=O)(CCCn1cncn1)Cc1ccc(F)cc1Cl | -8.31 |
| CN(C)CCNC(=O)CNC(=O)N1CCc2c([nH]c3ccc(Cl)cc23)C1 | 45.2 |
| CC(NC(=O)Nc1ccc(N2CCCC2)nc1)c1nncn1C (centres undefined) | 5.27 |
| Cc1ccc(CN2Cc3nnn(C)c3C(COCc3ccccc3)C2)o1 (centres undefined) | -8.1 |
| COCC(=O)N1CCC(c2ccc(OC)cc2)C1 (centres undefined) | -16.3 |
| NC(=O)N1CCC2(CC1)CN(c1ncccn1)CCO2 | -7.64 |
| Cn1nc(Cl)cc1C(=O)N1CCC(C(=O)c2nc3ccccc3s2)CC1 | 10.5 |
| CC(C)Cn1c2c(ccc1=O)CC(N)CC2 (centres undefined) | -3.16 |
| O=C(NCc1nc2ccccc2[nH]1)c1cnn2c1OCCC2 | -1.96 |
| CCN(CC)C(CNCc1ccc(O)cc1)c1ccco1 (centres undefined) | 27 |
| O=C(NCc1cccnc1)C1=NOC2(CCCN(CCO)C2)C1 (centres undefined) | -10.7 |
| CS(=O)(=O)NCC(=O)N1CCCC1c1noc(C2CC2)n1 (centres undefined) | -2.26 |
| CCc1cnc(N)nc1NCCn1cc(Cl)cn1 | -6.52 |
| COc1ccc(CN2CC[C@@]3(O)CCCC[C@H]3C2)cc1C(=O)O | 8.88 |

| Compound | cytotoxicity at 70.5 h [%] |
| --- | --- |
| Cc1ccc(NC(=O)NC(C)c2nc[nH]n2)cc1 (centres undefined) | -5.24 |
| CCOc1cc(C(=O)N2CCCC2)cc2occc12 | -8.39 |
| O=C(C1CCC1)N1C[C@@H]2CN(Cc3ccncc3)C(=O)[C@@H]2C1 | -12.5 |
| COC[C@@H]1CCCN1C(=O)c1cc(-c2cccc(OC)c2)n[nH]1 | -2.07 |
| CN(C)c1ccc(CNC(=O)NCCc2ccccn2)cn1 | -12.8 |
| Cc1cc(-c2cnc(NC3CC3)nc2-c2ccco2)on1 | -12.6 |
| Cc1ccc(O)c(C(=O)N2CCC3(CCCNC3)C2)c1 (centres undefined) | -7.79 |
| Cc1[nH]ncc1CCCNC(=O)N1CCC(CC(N)=O)CC1 | -0.905 |
| CCCn1[nH]cc/c1=N\C(=O)CN1CCCC1Cn1nc(C)nc1C (centres undefined) | -1.59 |
| CN(C)C(C(=O)N1CCC(CCO)CC1)c1ccccc1F (centres undefined) | 8.83 |
| O=c1c2cn[nH]c2nc(SCCN2CCOCC2)n1-c1ccccc1 | -7.75 |
| Cc1cc(C)cc(CN2CCN(C(=O)C3CCC3)[C@@H]3CS(=O)(=O)C[C@@H]32)c1 | -5.88 |
| CC(=O)N1CCCN(C(=O)NCCCNS(C)(=O)=O)CC1 | 9.32 |
| CCc1csc(CNc2cc(C)nc(-c3cccnc3)n2)n1 | -7.79 |
| COc1c(F)cc(-c2cn(CCn3c(C)cc(C)nc3=O)nn2)cc1Cl | -2.6 |
| O=C(O)c1nnn(-c2cccc(C(F)(F)F)c2)c1-c1ccncc1 | 5.64 |
| COc1ccc(C(=O)Nc2cnn(CC(=O)NC3CCCC3)c2)c(O)c1 | -1.19 |
| COCCCNc1nc(CNC(C)=O)cc(-c2ccco2)n1 | -8.32 |
| Cc1cc2c(=O)n(CC(=O)N3CCn4cccc4C3C(C)C)cnc2s1 (centres undefined) | -6.1 |
| CCOCCN1CCN(CCOC)CC1C (centres undefined) | -8.63 |
| Cc1cccc(NC(=O)N2CCN(Cc3noc(C4CC4)n3)CC2)c1 | 2.6 |
| O=S(=O)(NCCc1nc(-c2cccnc2)n[nH]1)NCc1ccccc1 | -7.05 |
| CC(C)NS(=O)(=O)c1cc(C(=O)O)cc(-c2ccc3c(c2)OCCO3)c1 | -8.82 |

| Compound | cytotoxicity at 70.5 h [%] |
| --- | --- |
| CCCn1[nH]cc/c1=N\C(=O)CN1CCCC1Cn1cccn1 (centres undefined) | -6.25 |
| CCN(CCN1CCOCC1)C(=O)c1cccnc1 | 4.89 |
| Cc1noc(C)c1S(=O)(=O)NCC(C)(O)c1ccc2c(c1)OCO2 (centres undefined) | -3.11 |
| COCCN(CCOC)C(=O)c1cccc(Cn2nc(C)cc2C)c1 | 0.115 |
| Cc1ccc(CNCCOc2ccc(S(C)(=O)=O)cc2)cc1 | 11 |
| COCc1nccc(C2CCCN(Cc3ccc(SC)cc3)C2)n1 (centres undefined) | -3.62 |
| CCCN1CCCn2nc(CNC(=O)CC3CCS(=O)(=O)C3)cc2C1 (centres undefined) | -3.24 |
| CN(C)C(=O)c1n[nH]c2c1CN(CC1CCC1)C2 | -1.39 |
| CN1CCCC1CCn1ccnc1-c1nc2ccccc2[nH]1 (centres undefined) | -0.748 |
| Cc1nc(C)n(CC2CN(CCOc3ccccc3F)CCO2)n1 (centres undefined) | -10.8 |
| O[C@@H]1CCN(CC2CCOC2)[C@H]1Cc1cccnc1 (some centres undefined) | -12.1 |
| CCc1nncn1CCNC(=O)N1CCN(Cc2ccccc2)CC1 | 3.82 |
| CC(=O)c1c(C)nn(S(=O)(=O)c2ccccc2)c1C | 3.79 |
| CCCn1c(C)c(CC(=O)N(C)CCO)c2c1CC(C)(C)CC2=O | 26.2 |
| Cc1ccccc1-n1ncc(C(C)N)c1C (centres undefined) | 26.7 |
| CC(C)c1nnc(NC(=O)NCc2ccc(CO)c(F)c2)s1 | -13.4 |
| CN(C)[C@@H]1CN(C(=O)Cc2ccccc2)[C@@H]2CCCO[C@H]12 | 15.5 |
| CCOCC(=O)N1CCC2(CC1)COCCN2CCN(C)C | -9.1 |
| COc1ccnc(N(C)Cc2ccco2)n1 | 10.4 |
| CSCC[C@H](N)C(=O)N1CC(Oc2ccccc2C)C1 | -3.44 |
| O=C([C@@H]1CCCO1)N1CCN(Cc2ccncc2)c2ncccc2C1 | -0.675 |
| CCc1n[nH]c(C2CN(C(=O)c3ccc(Cl)cn3)CCO2)n1 (centres undefined) | -8.84 |

Reference: ChEMBL document CHEMBL3507680, “University of Dundee, Gates Library screen for HepG2 cell viability”
